# Source: a melting point compilation (Tetko et al.; mined from patent text by program, amines drawn as free bases though some values may be those of a salt)
row,melting point,Compound
1,217 to 222 °C,CN1CCN(c2ccc(Nc3ncc4cc5ccccc5n4n3)cc2)CC1
2,124 to 126 °C,CNc1ccc(NC(=O)OC2CCCC2)cc1C(Cc1ccc(C(=O)OC)cc1OC)=NOC(C)=O
3,146 to 147 °C,CC1CCCC=C1c1ccc(C(=O)O)cc1 (stereo not drawn)
4,206 to 208 °C,CC(=O)c1nc(N)nc(N)c1-c1ccc(Cl)cc1
5,233 to 234 °C,O=C(Nc1cccnc1)N1CCN(c2nccc(-c3ccc(F)cc3)n2)CC1
6,142 to 144 °C,Oc1cccc(-n2nc(-c3ccccc3)c3cccnc32)c1
7,214 to 216 °C,COc1cc2ncnc(N3CCN(C(=S)Nc4cc(C)cs4)CC3)c2cc1OC
8,76 to 81 °C,CC(=O)Nc1cccc(-c2cnc3c(c2)nc(-c2cccnc2N)n3-c2ccc(CNC(=O)c3ccccc3)cc2)c1
9,120 °C,COc1ccc(-c2c(CCN3CCN(c4cc(C)ccn4)CC3)c3cccc4c3n2CCC4)cc1
10,184 to 186 °C,CC(=O)NC[C@H]1CN(c2ccc(N3CCC(O)(CN4CCOCC4)CC3)c(F)c2)C(=O)O1
11,144 to 145 °C,Fc1ccc(OCc2ccnc3c(Cl)cccc23)cc1
12,164 to 166 °C,CC(C)c1ccc2c(c1)c(Sc1ccccc1)c(CCC(C)(C)C(=O)O)n2Cc1ccc(Cl)cc1
13,173 to 175 °C,O=C(NCc1ccccc1)C1=C(c2ccccc2)C(c2ccccc2)OC1=O (stereo not drawn)
14,209 to 212 °C,CCn1cc(C(=O)O)c(=O)c2cc(F)c(N3CCN(C)C(c4ccco4)C3)cc21 (stereo not drawn)
15,134 to 136 °C,Cn1c(CC#N)ccc1C(=O)c1ccc(F)cc1
16,283 to 285 °C,NC(=O)Cn1c(=O)c2ncn3c2n(c1=O)CC=C3c1cccc(C(F)(F)F)c1
17,257 °C,CCCCc1nc2c(N)nc3ccc(OCC(=O)N4CCOCC4)cc3c2n1C
18,111 to 112 °C,CC(C)n1nc(-c2sc(C(=O)N3CCCCC3)nc2-c2ccccc2)ccc1=O
19,77 °C,COC1(c2cccc(OCc3ccc4ccc(F)cc4c3)c2)CC(C)OC(C)C1 (stereo not drawn)
20,173 to 174 °C,O=C(Nc1ccc(O)cc1)C1CCCCC12OCCO2 (stereo not drawn)
21,254 to 257 °C,CC1(C)Cc2ccccc2C1c1cnccc1C(=O)O (stereo not drawn)
22,109 to 113 °C,Cc1cc(Br)cnc1CCCCNc1nccc(=O)[nH]1

row,melting point,Compound
1,138 to 139 °C,O=C(O)[C@H](Cc1ccc(C(F)(F)F)cc1)[C@@H](O)c1ccccc1 (racemic)
2,170 to 171 °C,O=C(NCc1ccc(C(F)(F)F)cc1)c1cnc(Cl)nc1N1CCCC1
3,104 °C,Fc1cccc(F)c1C1=NC(c2ccc(OCc3ccc(Cl)cc3Cl)cc2)CO1 (stereo not drawn)
4,275 to 279 °C,Cc1ccc(C(=O)Nc2cc(-c3cccnc3)cc(C(F)(F)F)c2)cc1Nc1nccc(-c2cccnc2)n1
5,72 °C,CC(CCO)c1ccc(-c2ccccc2)c(F)c1 (stereo not drawn)
6,51 to 52 °C,C=COCCOc1ccc(Oc2ccccc2)cc1
7,123 to 124 °C,COc1cc(NC(=O)CN2CCN(c3ncccc3C#N)CC2)cc(OC)c1OC
8,219 °C,O=c1cc(-c2ccncc2)nc2n1CCCN2
9,139 to 145 °C,COc1cccc(NC(=O)c2cccs2)c1
10,225 °C,CN(C)S(=O)(=O)c1cccc(-c2cc(-c3nc(-c4ccc(C(F)(F)F)cc4)cc(C(F)(F)F)n3)ccn2)c1
11,252 to 254 °C,Cn1ncc2cc(NC(=O)Nc3ccc(C(F)(F)F)cc3)ccc21
12,138 to 139 °C,CCSC1(c2ccc(Cl)cc2)OC(c2ccncc2)=Nc2ccccc21 (stereo not drawn)
13,170 to 172 °C,N#Cc1ccc(-c2ccc(OCCCC(=O)NO)cc2)cc1
14,167 to 172 °C,O=C(C1CCCCC1)N1CCN2C(=O)c3ccccc3C2C1=O (stereo not drawn)
15,68 to 71 °C,Cc1nc2ccnc(-c3ccccc3)n2n1
16,81.1 to 82.2 °C,CC(C)(C)OC(=O)CCOCCCc1ccnc(-c2nc(=O)c3ccccc3s2)c1
17,121 to 122 °C,COC(=O)c1cccc(-c2nc(-c3ccc(F)cc3F)cs2)c1
18,129 to 138 °C,N#Cc1c(OCCOc2ccccc2)cccc1[N+](=O)[O-]
19,130 to 131 °C,COc1cc2ncnc(N3CCCc4ccccc43)c2cc1OC
20,283 to 285 °C,COc1cc2ncnc(N3CCN(C(=S)Nc4cc(O)nc(O)n4)CC3)c2cc1OC
21,215 to 217 °C,Cn1c(=O)c(-c2c(Cl)cccc2Cl)cc2cnc(Nc3cccc(CO)c3)nc21

# The next lines start with the compound.
row,Compound,melting point
1,COCc1ncccc1CN(CCn1cc(C)c2occc2c1=O)Cc1ccc2c(c1)NC(=O)C(C)(C)C(=O)N2CC(C)C,207 to 210 °C
2,Cc1cc2c(cc1OCC(=O)O)C(C)(C)CC1(CC(C)(C)c3cc(OCC(=O)O)c(C)cc3O1)O2,> 260 °C
3,CN1CCN2c3ccccc3C(O)c3ccccc3C2C1 (stereo not drawn),137 to 138 °C
4,O=C1CCC2CCCC3CC(=O)N1C23 (stereo not drawn),118 to 120 °C
5,COc1ccc(OC)c(C(=O)c2cc3cc(OC)ccc3o2)c1,119 to 121 °C
6,CC1(C)OC(C=Cc2ccc(Cl)c(Cl)c2)=CC1=O,100 to 102 °C
7,O=C1c2cccc3c([N+](=O)[O-])ccc(c23)C(=O)N1O,255 to 260 °C
8,CCCCCCCCCCCCc1nnn(C(C(=O)O)C(C)C)n1 (stereo not drawn),39 to 42 °C
9,CCOC(=O)C1CCc2c(oc3cc(NC(C)=O)ccc23)C1 (stereo not drawn),115 to 116 °C
10,CC1=CC(=C(C#N)C#N)C=C(C)S1(=O)=O,176 to 177 °C
11,O=C1OC(CCl)CN1c1ccc(S(=O)(=O)C(F)(F)F)cc1 (stereo not drawn),121 to 123 °C
12,CCn1cc(C(=O)O)c(=O)c2c(C)c(F)c(N3CCC(N)C3)c(F)c21 (stereo not drawn),218 to 220 °C
13,CC(Cl)(Cl)C(=O)N1CCCC1C(=O)O (stereo not drawn),61 to 62 °C
14,CCN(CC)C(=O)n1cnc(S(=O)(=O)C(F)F)n1,58 to 59 °C
15,O=C(C=Cc1ccc[nH]1)c1ccccc1Br,76 to 78 °C
16,O=c1c2c(Cl)cc(Cl)cc2n(Cc2ccccc2)c(=O)n1Cc1ccccc1,104 to 106 °C
17,COCCOCOc1c(C(C)(C)C)cc(-c2nc(Br)no2)cc1C(C)(C)C,89 to 91 °C
18,COc1ccc(C(O)CCN2CC=C(c3ccc(Cl)cc3)CC2)cc1 (stereo not drawn),116 to 118 °C
19,Nc1nc(Cl)nc2c1ncn2C1CCCCC1,206 to 209 °C
20,CCCCCCCCCCCC(=O)N(N=C=S)C(CCCCN)C(=O)O (stereo not drawn),37 to 39 °C
21,CCN1CC(=O)N(CC)c2cc(Nc3ncc(Cl)c(Nc4ccccc4S(=O)(=O)N(C)C)n3)c(OC)cc2C1,195 to 197 °C
22,C=C(Cl)CC(C#N)(C#N)Cc1ccc(Cl)cc1,85.5 °C
23,Cn1nnnc1CC(=O)c1cc(F)c(F)cc1N,162 to 164 °C
24,NC(=O)c1[nH]c2ccccc2c1Cl,191 to 192 °C
25,CCOC(=O)C1CC(=O)C(N=Nc2ccc(Br)cc2)=C(O)C1 (stereo not drawn),169 to 171 °C
26,Cc1ccccc1C=C(C#N)C=O,81.5 °C
27,COC(=O)CC1CC(c2ccc(C#N)cc2F)=NO1 (stereo not drawn),92 to 94 °C
28,CCOC(=O)/C=C/c1ccc(OCCOC)cc1OCc1ccc(Cl)cc1Cl,101 °C
29,Cc1nc(Cl)c2ccccc2c1CC(=O)O,180 to 183 °C
30,CC(=O)NC(Cc1ccccc1)C(=O)Nc1c(C(C)C)cccc1C(C)C (stereo not drawn),228 to 229 °C
